# Test results: the supplement of paper PMC10307832
# Assays:
# [1] = compound: CC(=O)Nc1cccc(-n2c(=O)n(C3CC3)c(=O)c3c(Nc4ccc(I)cc4F)n(C)c(=O)c(C)c32)c1 [Trametinib]; assay: relative viability (nuclei count vs DMSO), 5 days (fraction); higher = more cells survive
# Summary of the method: (§1)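 Acceptance criteria were a control CV below 25% and at least one doubling per plate. Lung cancer cell lines in 1536-well plates got five library-drug doses (not always all listed) √10 apart by pinning and were left 5 days with no medium change. Viability divides treated-well nuclei by vehicle-well nuclei and is the median across plates. Nuclei were counted by MetaXpress from 4× Hoechst images.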
# [2] = compound: CN1C=C(C2=CC=CC=C21)/C=C\3/C4=C(C=CC=N4)NC3=O; assay: as above
# Summary of the method: as §1
Cell Line,relative viability ([1]; 0.0025 µM),relative viability ([1]; 0.007906 µM),"relative viability ([1]; 0.02 µM, anchor plate)",relative viability ([1]; 0.025 µM),relative viability ([1]; 0.07906 µM),relative viability ([1]; 0.25 µM),relative viability ([2]; 0.02 µM),relative viability ([2]; 0.06325 µM),relative viability ([2]; 0.2 µM),relative viability ([2]; 0.6325 µM),relative viability ([2]; 2 µM)
201T,0.96,0.886,0.721,0.845,0.778,0.761,0.951,0.979,0.988,0.916,0.971
A549,0.864,0.658,,0.375,0.278,0.14,0.935,0.992,0.767,0.923,0.989
A-427,1.04,0.96,0.77,0.66,0.68,0.35,1.06,0.955,,1.04,1.03
ABC-1,0.963,0.908,,0.749,0.547,0.333,0.829,0.896,0.709,0.857,0.764
BEN,0.953,0.96,1.07,0.566,0.658,0.814,0.863,0.872,0.701,0.755,1.05
CAL-12T,0.904,0.723,0.369,0.503,0.51,0.343,0.894,0.873,0.98,0.972,0.924
COR-L23,0.979,0.995,0.593,0.871,0.849,0.476,0.992,0.994,1.09,1.12,1
COR-L 105,0.835,0.786,0.446,0.426,0.386,0.426,0.803,0.838,0.837,1.05,1.02
Calu-6,0.915,0.727,,0.472,0.24,0.18,1.02,0.968,1.01,0.99,1.05
ChaGo-K-1,0.999,0.921,0.917,0.951,0.861,0.764,0.991,1,0.784,1.02,0.996
EBC-1,1,0.98,,0.648,0.308,0.207,0.968,0.963,0.905,0.912,0.969
EKVX,0.852,0.766,0.364,0.583,0.491,0.395,0.952,0.812,0.801,0.885,0.983
EMC-BAC-2,1.2,1.01,0.859,0.775,0.61,0.635,1.1,0.92,0.89,0.798,0.673
EPLC-272H,0.844,0.644,0.287,0.503,0.327,0.188,0.921,0.828,0.639,0.645,0.869
H3255,0.973,0.879,0.631,0.787,0.742,0.563,1.04,0.951,0.834,0.978,0.903
HARA,0.861,0.947,0.674,0.86,0.503,0.375,0.935,0.972,0.657,0.96,0.928
